Laboratory results published in ChEMBL document CHEMBL4680201, “Design, synthesis, and pharmacological evaluation of 4- or 6-phenyl-pyrimidine derivatives as novel and selective Janus kinase 3 inhibitors” (Eur J Med Chem, 2020).

How the values were obtained:
[1] = molecular target: T1, BMX (Cytoplasmic tyrosine-protein kinase BMX) (Homo sapiens, UniProt P51813); experiment: Inhibition of recombinant human His-tagged full length BMX expressed in baculovirus expression system at 100 nM using Tyr 01 as substrate incubated for 60 mins by Z'-Lyte assay relative to control; conditions: probe Tyr 01
T1 sequence (P51813 whole entry): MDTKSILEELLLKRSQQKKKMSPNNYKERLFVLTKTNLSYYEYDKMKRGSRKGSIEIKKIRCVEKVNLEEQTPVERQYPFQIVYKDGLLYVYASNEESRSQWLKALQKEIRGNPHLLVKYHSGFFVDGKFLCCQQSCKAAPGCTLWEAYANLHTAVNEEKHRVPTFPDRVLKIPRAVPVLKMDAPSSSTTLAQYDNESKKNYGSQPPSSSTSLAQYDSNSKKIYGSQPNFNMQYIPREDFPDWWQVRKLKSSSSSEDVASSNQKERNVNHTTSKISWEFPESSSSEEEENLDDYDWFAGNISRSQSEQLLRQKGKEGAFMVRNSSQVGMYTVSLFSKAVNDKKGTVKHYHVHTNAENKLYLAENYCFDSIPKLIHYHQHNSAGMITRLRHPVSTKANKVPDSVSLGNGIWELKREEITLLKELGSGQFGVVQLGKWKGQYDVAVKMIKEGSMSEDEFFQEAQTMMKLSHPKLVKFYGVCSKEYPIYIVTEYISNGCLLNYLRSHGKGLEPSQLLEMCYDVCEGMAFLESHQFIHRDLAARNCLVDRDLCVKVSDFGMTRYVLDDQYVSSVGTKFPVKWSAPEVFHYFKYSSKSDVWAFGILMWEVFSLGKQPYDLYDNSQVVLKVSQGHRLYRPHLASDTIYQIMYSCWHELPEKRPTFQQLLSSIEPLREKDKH

[2] = molecular target: T2, Tyrosine-protein kinase JAK3 (Mus musculus) (UniProt Q62137); experiment: Inhibition of JAK3 in anti-CD3/-CD28 coated mouse T cells assessed as reduction in IL15-induced STAT5 phosphorylation preincubated for 1 hr followed by […] and measured after 30 mins by Western blot analysis; conditions: T cell
T2 sequence (whole entry): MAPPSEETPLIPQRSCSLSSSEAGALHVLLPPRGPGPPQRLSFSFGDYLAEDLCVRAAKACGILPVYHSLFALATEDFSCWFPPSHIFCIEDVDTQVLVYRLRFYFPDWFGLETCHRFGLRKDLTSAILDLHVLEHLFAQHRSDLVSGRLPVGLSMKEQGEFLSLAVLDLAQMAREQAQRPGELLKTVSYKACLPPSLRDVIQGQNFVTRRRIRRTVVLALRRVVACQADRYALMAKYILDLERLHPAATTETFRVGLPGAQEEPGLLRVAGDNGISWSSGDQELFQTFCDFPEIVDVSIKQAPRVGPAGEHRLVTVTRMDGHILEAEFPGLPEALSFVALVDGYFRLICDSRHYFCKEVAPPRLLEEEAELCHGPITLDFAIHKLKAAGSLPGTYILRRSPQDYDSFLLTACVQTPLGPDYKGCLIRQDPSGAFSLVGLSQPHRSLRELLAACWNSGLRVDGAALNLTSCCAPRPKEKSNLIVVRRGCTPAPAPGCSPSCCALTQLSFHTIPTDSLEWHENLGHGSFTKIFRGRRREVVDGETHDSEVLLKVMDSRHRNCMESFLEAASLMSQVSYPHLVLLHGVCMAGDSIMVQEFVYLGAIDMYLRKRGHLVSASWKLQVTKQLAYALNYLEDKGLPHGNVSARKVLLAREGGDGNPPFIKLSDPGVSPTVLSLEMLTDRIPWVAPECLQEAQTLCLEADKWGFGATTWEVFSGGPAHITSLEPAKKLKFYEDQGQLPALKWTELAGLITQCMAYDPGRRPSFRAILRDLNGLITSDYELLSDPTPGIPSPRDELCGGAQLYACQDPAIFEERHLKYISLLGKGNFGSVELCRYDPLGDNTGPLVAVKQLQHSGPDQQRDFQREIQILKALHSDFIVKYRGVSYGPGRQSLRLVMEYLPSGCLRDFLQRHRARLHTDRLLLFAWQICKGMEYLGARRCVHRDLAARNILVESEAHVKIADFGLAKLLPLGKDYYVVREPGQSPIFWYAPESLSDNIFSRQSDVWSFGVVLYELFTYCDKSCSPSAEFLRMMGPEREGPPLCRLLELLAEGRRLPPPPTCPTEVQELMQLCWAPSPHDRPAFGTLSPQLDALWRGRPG

[3] = Cytotoxicity against IL-4-treated mouse T cells assessed as reduction in cell viability at 10 uM measured after 72 hrs by MTS assay; format: cell-based

SMILES: C=CC(=O)Nc1ccc(-c2ccnc(Nc3ccc(N4CCOCC4)cc3)n2)cc1
- inhibition at 1 h, 0.1 µM [1]: 3.7%
- inhibition [2]: Dose-dependent effect
- Activity [3]: Non-Toxic
